Source: DBAASP
≈ marks a conversion by molar mass, not a printed value.

How the values were obtained:
Test in all cases: ≥ marks a high value that may be exact or a test limit, other limits are often not marked, values filed in µg/mL are converted to µM
Candida albicans = tested on: Candida albicans
Serratia marcescens = tested on: Serratia marcescens
[1] = tested on: Bacillus subtilis KCTC 1021
[2] = tested on: Staphylococcus epidermidis ATCC 12228
[3] = tested on: Shigella dysenteriae ATCC 9752
Pseudomonas putida = tested on: Pseudomonas putida
Saccharomyces cerevisiae = tested on: Saccharomyces cerevisiae
Escherichia coli = tested on: Escherichia coli
[4] = tested on: Salmonella enterica subsp. enterica serovar Typhimurium ATCC 14028
[5] = tested on: Proteus mirabilis ATCC 25933
[6] = tested on: Pseudomonas aeruginosa ATCC 9027
[7] = tested on: Micrococcus luteus ATCC 4698
[8] = tested on: Klebsiella pneumoniae ATCC 10031
[9] = tested on: Staphylococcus epidermidis NBRC 12933
[10] = tested on: Bacillus subtilis NBRC 3513
[11] = tested on: Staphylococcus aureus NBRC 12732
[12] = tested on: Bacillus megaterium ATCC 19213
Escherichia coli 218 = tested on: Escherichia coli 218
Staphylococcus aureus 10 = tested on: Staphylococcus aureus 10
[13] = tested on: Candida albicans ATCC 2002
Escherichia coli 37 = tested on: Escherichia coli 37
[14] = tested on: Klebsiella pneumoniae ATCC 700603
[15] = tested on: Candida albicans ATCC 90028
Staphylococcus aureus 37 = tested on: Staphylococcus aureus 37
Shigella dysenteriae = tested on: Shigella dysenteriae
[16] = tested on: Pseudomonas aeruginosa ATCC 27853
[17] = tested on: Staphylococcus aureus ATCC 25923
[18] = tested on: Enterobacter cloacae ATCC 13047
Pseudomonas aeruginosa = tested on: Pseudomonas aeruginosa
[19] = tested on: Enterococcus faecalis ATCC 29212
[20] = tested on: Candida parapsilosis ATCC 22019
[21] = tested on: Cryptococcus neoformans IP962-67
[22] = tested on: Trichophyton simii J43 IP903-65
[23] = tested on: Nocardia brasiliensis IP16-80
Microsporum canis IP1194 = tested on: Microsporum canis IP1194
[24] = tested on: Saccharomyces cerevisiae IP118079
[25] = tested on: Candida albicans IP886-65
[26] = tested on: Enterococcus faecalis IP103214
[27] = tested on: Staphylococcus aureus IP76-25
[28] = tested on: Trichophyton simii IP1063-74
[29] = tested on: Aspergillus niger IP218-53
Acinetobacter baumannii = tested on: Acinetobacter baumannii
[30] = tested on: Aspergillus fumigatus IP1025-70
[31] = tested on: Candida albicans IP884-65
[32] = tested on: Trichophyton mentagrophytes IP877-71
[33] = tested on: Cryptococcus neoformans IP960-67
[34] = tested on: Trichophyton rubrum IP2043-92
[35] = tested on: Aeromonas caviae IP67-16T
Escherichia coli IP76-24 = tested on: Escherichia coli IP76-24

With CC[C@H](C)[C@H](NC(=O)CN)C(=O)N[C@@H](CCSC)C(=O)N[C@@H](CO)C(=O)N[C@H](C(=O)N[C@H](C(=O)N[C@@H](CCCCN)C(=O)N[C@@H](CC(=O)O)C(=O)N[C@H](C(=O)N[C@@H](C)C(=O)N[C@@H](CCCCN)C(=O)N[C@@H](CC(N)=O)C(=O)N[C@@H](C)C(=O)N[C@@H](C)C(=O)N[C@@H](CCCCN)C(=O)N[C@@H](CCC(=O)O)C(=O)N[C@@H](C)C(=O)N[C@@H](C)C(=O)N[C@@H](CCCCN)C(=O)NCC(=O)N[C@@H](C)C(=O)N[C@@H](CC(C)C)C(=O)N[C@@H](CO)C(=O)N[C@H](C(=O)N[C@@H](CC(C)C)C(=O)N[C@@H](CO)C(=O)N[C@H]1CSSC[C@@H](C(=O)O)NC(=O)[C@H]([C@@H](C)O)NC(=O)[C@H](CCCCN)NC(=O)[C@H](C)NC(=O)[C@H](CC(C)C)NC(=O)[C@H](CCCCN)NC1=O)[C@@H](C)O)C(C)C)C(C)C)[C@@H](C)CC [GIMSIVKDVAKNAAKEAAKGALSTLSCKLAKTC] the MIC (Candida albicans) was 45.2 µM (≈ 150 µg/mL), the MIC (Serratia marcescens) was no less than 60.2 µM and the MIC [1] was 3.01 µM (≈ 9.99 µg/mL). The MIC [2] was 3.01 µM (≈ 9.99 µg/mL), the MIC [3] was 7.53 µM (≈ 25 µg/mL) and the MIC (Pseudomonas putida) was 15.1 µM (≈ 50 µg/mL). It also gave an MIC (Saccharomyces cerevisiae) of no less than 45.2 µM, an MIC (Escherichia coli) of 22.6 µM (≈ 75 µg/mL) and an MIC [4] of 45.2 µM (≈ 150 µg/mL). For the same compound, the MIC [5] was no less than 60.2 µM, the MIC [6] was 15.1 µM (≈ 50 µg/mL) and the MIC [7] was 0.753 µM (≈ 2.5 µg/mL). The MIC [8] was 7.53 µM (≈ 25 µg/mL).
For CC[C@H](C)[C@H](NC(=O)[C@H](C)N)C(=O)N[C@@H](Cc1ccccc1)C(=O)N[C@H](C(=O)N[C@@H](Cc1ccccc1)C(=O)N[C@H](C(=O)N[C@@H](CCCN=C(N)N)C(=O)N[C@@H](Cc1c[nH]c2ccccc12)C(=O)N[C@@H](CC(C)C)C(=O)N[C@@H](CC(C)C)C(=O)N[C@@H](CCCCN)C(=O)O)[C@@H](C)CC)[C@@H](C)CC [AIFIFIRWLLK], the MIC [9] was no less than 32 µM, the MIC [10] was no less than 32 µM and the MIC [11] was 16 µM (≈ 22.7 µg/mL). It also gave an MIC [12] of 16 µM (≈ 22.7 µg/mL).
CC[C@H](C)[C@H](N)C(=O)N[C@@H](CC(N)=O)C(=O)N[C@@H](CC(C)C)C(=O)N[C@@H](CCCCN)C(=O)N[C@@H](C)C(=O)N[C@H](C(=O)N[C@@H](C)C(=O)N[C@@H](C)C(=O)N[C@@H](CC(C)C)C(=O)N[C@H](C(=O)N[C@@H](CCCCN)C(=O)N[C@@H](CCCCN)C(=O)N[C@@H](CC(C)C)C(=O)N[C@@H](CC(C)C)C(=O)O)C(C)C)[C@@H](C)CC [INLKAIAALVKKLL] was tested, and the MIC (Escherichia coli 218) was no less than 53.1 µM, the MIC (Staphylococcus aureus 10) was no less than 53.1 µM and the MIC [13] was no less than 53.1 µM. For the same compound, the MIC (Escherichia coli 37) was 26.5 µM (≈ 40 µg/mL), the MIC [14] was 26.5 µM (≈ 40 µg/mL) and the MIC [15] was no less than 53.1 µM. The MIC (Staphylococcus aureus 37) was 13.3 µM (≈ 20 µg/mL), the MIC (Shigella dysenteriae) was 13.3 µM (≈ 20 µg/mL) and the MIC [16] was 26.5 µM (≈ 40 µg/mL). The MIC [17] was 13.3 µM (≈ 20 µg/mL), the MIC [18] was no less than 53.1 µM and the MIC (Pseudomonas aeruginosa) was 26.5 µM (≈ 40 µg/mL). The MIC [19] was 53.1 µM (≈ 80 µg/mL) and the MIC [20] was 26.5 µM (≈ 40 µg/mL).
In the case of CSCC[C@H](NC(=O)[C@H](Cc1c[nH]c2ccccc12)NC(=O)[C@H](CC(C)C)NC(=O)[C@H](C)N)C(=O)N[C@H](C(=O)N[C@@H](CC(C)C)C(=O)N[C@@H](CC(C)C)C(=O)N[C@@H](CCCCN)C(=O)N[C@@H](CCCCN)C(=O)N[C@H](C(=O)N[C@@H](CC(C)C)C(=O)N[C@@H](CCCCN)C(=O)N[C@@H](C)C(=O)N[C@@H](C)C(=O)N[C@@H](C)C(=O)N[C@@H](CCCCN)C(=O)N[C@@H](C)C(=O)N[C@@H](CC(C)C)C(=O)N[C@@H](CC(N)=O)C(=O)N[C@@H](C)C(=O)N[C@H](C(=O)N[C@@H](CC(C)C)C(=O)N[C@H](C(=O)NCC(=O)N[C@@H](C)C(=O)N[C@@H](CC(N)=O)C(=O)N[C@@H](C)C(=O)O)C(C)C)C(C)C)C(C)C)[C@@H](C)O [ALWMTLLKKVLKAAAKALNAVLVGANA], the MIC [21] is reported as 1 µM (≈ 2.78 µg/mL), the MIC [22] is reported as 20 µM (≈ 55.6 µg/mL) and the MIC [23] is reported as 10 µM (≈ 27.8 µg/mL). For the same compound, the MIC (Microsporum canis IP1194) was 15 µM (≈ 41.7 µg/mL), the MIC [24] was 20 µM (≈ 55.6 µg/mL) and the MIC [25] was 20 µM (≈ 55.6 µg/mL). For the same compound, the MIC [26] was 20 µM (≈ 55.6 µg/mL), the MIC [27] was 10 µM (≈ 27.8 µg/mL) and the MIC [28] was 30 µM (≈ 83.4 µg/mL). It also gave an MIC [29] of 30 µM (≈ 83.4 µg/mL), an MIC (Acinetobacter baumannii) of 4.5 µM (≈ 12.5 µg/mL) and an MIC [30] of 20 µM (≈ 55.6 µg/mL). It also gave an MIC [31] of 20 µM (≈ 55.6 µg/mL), an MIC [32] of 20 µM (≈ 55.6 µg/mL) and an MIC [33] of 2 µM (≈ 5.56 µg/mL). For the same compound, the MIC [34] was no less than 40 µM, the MIC [35] was 0.5 µM (≈ 1.39 µg/mL) and the MIC (Escherichia coli IP76-24) was 4 µM (≈ 11.1 µg/mL).
